Reference: article PMC5733478, “A Non-imaging High Throughput Approach to Chemical Library Screening at the Unmodified Adenosine-A3 Receptor in Living Cells” (Frontiers in Pharmacology, 2017)
Counter-ions that a name gives are not always drawn.

Target: T1, human A3AR (Homo sapiens, UniProt P0DMS8)
T1 construct: expressed in transfected cells
T1 sequence (P0DMS8 1-318): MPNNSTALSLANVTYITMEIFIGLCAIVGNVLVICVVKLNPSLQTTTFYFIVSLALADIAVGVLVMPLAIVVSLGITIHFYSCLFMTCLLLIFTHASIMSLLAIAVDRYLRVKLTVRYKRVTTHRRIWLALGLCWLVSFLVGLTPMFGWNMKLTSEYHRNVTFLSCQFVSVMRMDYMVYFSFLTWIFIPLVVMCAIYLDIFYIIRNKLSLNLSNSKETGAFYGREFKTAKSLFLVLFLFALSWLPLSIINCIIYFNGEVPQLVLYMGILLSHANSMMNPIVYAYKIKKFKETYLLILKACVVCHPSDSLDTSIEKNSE
Assay: LOPAC library primary screen: single concentration (10 μM) inhibition of 25 nM CA200645 binding, PHERAstar FS
Conditions: not given

Row | Compound | % 25 nM CA200645 binding [%]
1 | CCCn1c(=O)c2[nH]c(C3CCCC3)nc2n(CCCOC(=O)c2ccc(S(=O)(=O)F)cc2)c1=O [FSCPX, reference compound] | 57.1 ± 9.1
2 | Cl.N[C@@H](Cc1cnc[nH]1)C(=O)O [L-Histidine hydrochloride] | 100.4 ± 6.4
3 | CC(Cc1ccc(O)c(O)c1)C(C)Cc1ccc(O)c(O)c1 (stereo not shown) | 79.3 ± 28.3
4 | Nc1nnc(-c2cccc(Cl)c2Cl)c(N)n1 [Lamotrigine] | 93.6 ± 9.2
5 | Cc1cn[nH]c1.Cl [4-Methylpyrazole hydrochloride] | 102.3 ± 3.8
6 | CCN(CC)CCNC(=O)c1ccc(N)cc1 [Procainamide hydrochloride] | 89.6 ± 33.7
7 | Nc1ccc(-c2ccc3ccccc3n2)cc1 [BF-170 hydrochloride] | 78.6 ± 20.5
8 | Cl.O=c1cc(N2CCOCC2)oc2c(-c3ccccc3)cccc12 [LY-294,002 hydrochloride] | 94.6 ± 11.0
9 | NC(=O)c1cnccn1 [Pyrazinecarboxamide] | 88.9 ± 26.1
10 | CN1C[C@H](C(=O)N[C@]2(C)O[C@@]3(O)[C@@H]4CCCN4C(=O)[C@H](Cc4ccccc4)N3C2=O)C[C@@H]2c3cccc4[nH]cc(c34)C[C@H]21 [Dihydroergotamine methanesulfonate] | 99.2 ± 11.1
11 | CN(C)c1nc(N)c(C(=O)NC(=N)N)nc1Cl [5-(N,N-Dimethyl)amiloride hydrochloride] | 95.5 ± 2.7
12 | CC(=O)OC(C)C[N+](C)(C)C.[Cl-] (stereo not drawn) [Acetyl-beta-methylcholine chloride] | 91.4 ± 19.2
13 | NCCCCN=C(N)N [Agmatine sulfate] | 97.6 ± 11.6
14 | CCN(CC)c1ncnc2c1ncn2[C@@H]1O[C@H](COP(=O)([O-])OP(=O)([O-])C(Br)(Br)P(=O)([O-])O)[C@@H](O)[C@H]1O.[Na+].[Na+].[Na+] [ARL 67156 trisodium salt] | 103.2 ± 16.2
15 | CC(N/C(=N\C#N)Nc1ccncc1)C(C)(C)C (stereo not shown) [Pinacidil] | 105.1 ± 8.3
16 | Cl.Cl.Oc1ccc2c3c1O[C@H]1c4[nH]c5c(c4C[C@@]4(O)[C@@H](C2)N(CC2CC2)CC[C@]314)C[C@@]1(O)[C@H]2Cc3ccc(O)c4c3[C@@]1(CCN2CC1CC1)[C@H]5O4 [nor-Binaltorphimine dihydrochloride] | 96.9 ± 14.7
17 | Cc1cc(Cl)ccc1OCCCC(=O)NO [Droxinostat] | 96.3 ± 1.9
18 | CCCCCCCC/C=C\CCCCCCCC(=O)NCc1ccc(O)c(OC)c1 [Olvanil] | 76.7 ± 2.8
19 | CC(N)Cc1c[nH]c2ccc(O)cc12.O=C(O)/C=C\C(=O)O (stereo not drawn) [alpha-Methyl-5-hydroxytryptamine maleate] | 115.5 ± 12.2
20 | Oc1ccccc1O [Pyrocatechol] | 91.0 ± 7.4
21 | Cn1ccc2cc3c(cc21)CCN3C(=O)Nc1cccnc1 [SB 206553 hydrochloride] | 60.7 ± 9.3
22 | C[C@H](O)C(=O)C1=Nc2c(nc(N)[nH]c2=O)NC1 [Sepiapterin] | 97.4 ± 20.7
23 | COc1cccc(NC(=O)/C=C/c2ccc(Cl)cc2)c1 [SB-366791] | 92.0 ± 7.1
24 | Oc1ccc2ccccc2c1SSc1c(O)ccc2ccccc12 [IPA-3] | 63.1 ± 15.2
25 | COc1cc(SC)ccc1C(=O)N1CCC(Cc2ccccc2)CC1 [JX401] | 84.6 ± 8.9

Row | Compound | % 25 nM CA200645 binding [%]
26 | Br.CCCN1CCC2c3cc(O)ccc3CCC21 (racemic) [cis(+/-)-8-OH-PBZI hydrobromide] | 98.1 ± 5.1
27 | Nc1c2c(nc3ccccc13)CCCC2O.O=C(O)/C=C\C(=O)O (stereo not shown) [Hydroxytacrine maleate] | 108.6 ± 13.0
28 | CO[C@@]1(NC(=O)CSCC#N)C(=O)N2C(C(=O)O)=C(CSc3nnnn3C)CS[C@@H]21 [Cefmetazole sodium] | 84.6 ± 22.3
29 | C[C@]12C[C@H](O)[C@H]3[C@@H](CCC4=CC(=O)CC[C@@]43C)[C@@H]1CC[C@@H]2C(=O)CO [Corticosterone] | 99.8 ± 5.3
30 | (±)-Ibuprofen | 91.4 ± 12.3
31 | CC(C)(C)NCC(O)c1cc(O)cc(O)c1.CC(C)(C)NCC(O)c1cc(O)cc(O)c1.O=S(=O)(O)O (stereo not shown) [Terbutaline hemisulfate] | 102.8 ± 10.1
32 | NC[C@H](O)c1ccc(O)c(O)c1.O=C(O)C(O)C(O)C(=O)O (racemic) [(±)-Norepinephrine (+)bitartrate] | 87.1 ± 8.1
33 | NN=C(N)N.NN=C(N)N.O=S(=O)(O)O [Aminoguanidine hemisulfate] | 99.2 ± 8.4
34 | CC(N)C(=O)OC(C)(C)Cc1ccc(Cl)cc1 (stereo not shown) [Alaproclate hydrochloride] | 104.8 ± 8.1
35 | Nc1nc2ccc(Cl)cc2n2c(-c3ccccc3)nnc12 [CP-66713] | 93.9 ± 10.2
36 | Cl.NCC(O)C1CCCCCCC1 (stereo not shown) | 94.5 ± 6.6
37 | NC(=O)N1c2ccccc2C=Cc2ccccc21 [Carbamazepine] | 89.8 ± 14.0
38 | Br.NC1CCc2cc(O)c(O)cc2C1 (stereo not shown) [6,7-ADTN hydrobromide] | 100.4 ± 8.1
39 | N#C/C(=C\c1ccc(O)c(O)c1)C(=O)c1ccc(O)c(O)c1 [Tyrphostin AG 538] | 90.2 ± 14.0
40 | Nc1nc(Cl)nc2c1ncn2[C@@H]1O[C@H](CO)[C@@H](O)[C@H]1O [2-Chloroadenosine] | 51.0 ± 6.7
41 | Nc1ncnc2c1c(-c1ccc(Oc3ccccc3)cc1)cn2C1CCCC1 | 58.8 ± 13.2
42 | Cc1scc2c1N(C(=O)CN1CCN(C)CC1)c1ccccc1NC2=O [Telenzepine dihydrochloride] | 107.0 ± 15.2
43 | CC(CCc1ccccc1)NCC(O)c1ccc(O)c(C(N)=O)c1 (stereo not shown) [Labetalol hydrochloride] | 97.5 ± 13.9
44 | NC(N)=NOCC[C@H](N)C(=O)O [L-Canavanine] | 101.1 ± 4.7
45 | COc1cc2nc(N(C)CCCNC(=O)C3CCCO3)nc(N)c2cc1OC (stereo not shown) [Alfuzosin hydrochloride] | 102.3 ± 4.9
46 | COC(=O)[C@@H]1[C@H]2C[C@H]3c4[nH]c5ccccc5c4CCN3C[C@@H]2CC[C@@H]1O [Yohimbine hydrochloride] | 100.6 ± 0.5
47 | COc1ccc(CNC(=O)/C=C/c2ccc3[nH]cc(CCN(C)C)c3c2)cc1 [GR 46611] | 100.9 ± 13.0
48 | Nc1ccncc1 [4-Aminopyridine] | 93.6 ± 7.2
49 | CCc1cccc(N(C)C(N)=Nc2cccc3ccccc23)c1 [CNS-1102] | 102.3 ± 11.4

Same assay, conditions: 10 μM compound, 25 nM CA200645, A3AR CHO cells

Row | Compound | hit in LOPAC primary screen (inhibited the binding of CA200645 by >40%)
50 | Cn1c(=O)c2c(nc(/C=C/c3cccc(Cl)c3)n2C)n(C)c1=O [CSC, reference compound] | not identified as hits

Same assay, conditions: % of 25 nM CA200645 binding in the presence of 10 μM compound, LOPAC full screen, A3AR CHO cells

Row | Compound | % Total CA200645 binding [%]
51 | CCCn1c(=O)c2[nH]c(C3CCCC3)nc2n(CCCOC(=O)c2ccc(S(=O)(=O)F)cc2)c1=O [FSCPX, reference compound] | 57.5 ± 23.0

Same assay, conditions: % of control wells (1% DMSO and 25 nM CA200645); compounds at 10 µM; whole live cells expressing the A3AR; mean ± SD, three experiments in duplicate

Row | Compound | % 25 nM CA200645 binding [%]
52 | CCn1ccnc1CC1COc2ccccc2O1 (stereo not shown) [Imiloxan hydrochloride] | 97.3 ± 10.2
53 | Cc1nc2ccccn2c(=O)c1CCN1CCC(C(=O)c2ccc(F)cc2)CC1 [Pirenperone] | 88.6 ± 5.4
54 | COc1ccc(C2CNC(=O)C2)cc1OC1CCCC1 (stereo not shown) [Rolipram] | 98.7 ± 10.9

Same assay, conditions: compounds tested at 10 µM; % of control wells (1% DMSO and 25 nM CA200645); whole live cells expressing the A3AR; mean ± SD, three experiments in duplicate

Row | Compound | % 25 nM CA200645 binding [%]
55 | [H]/N=C(/NC)NCCC[C@H](N)C(=O)O [NG-Monomethyl-L-arginine acetate] | 112.2 ± 7.1
